Experimental data published in patent publication US20240051978A1, “3-CYCLIC AMINE-INDOLE DERIVATIVES AS SEROTONERGIC AGENTS FOR THE TREATMENT OF CNS DISORDERS” (MINDSET PHARMA INC., priority 2020, published 2024).

How the values were obtained:
[1] = Liver microsomes stability, mouse; conditions: for Remaining Percentage (%) 0 min / Remaining Percentage (%) 60 min: Mouse; for CLint scaled at 2 μM / half-life at 2 μM / microsomal CLint at 2 μM: male, mouse, microsomes
Experimental: (§1) The objective of this study was to estimate in vitro metabolic stability of 1-12 in pooled human and male mouse liver microsomes. The concentrations of parent compounds in reaction systems were evaluated by LC-MS/MS for estimating the stability in pooled human and male mouse liver microsomes. The in vitro intrinsic clearances of test compounds were determined as well.
(§2) A master solution in the “Incubation Plate” containing phosphate buffer, ultra-pure H2O, MgCl2 solution and liver microsomes was made according to Table 3. The mixture was pre-warmed at 37° C. water bath for 5 minutes.
(§3) 40 μL of 10 mM NADPH solution was added to each well. The final concentration of NADPH was 1 mM. The negative control samples were prepared by replacing NADPH with 40 μL of ultra-pure H2O. Samples were prepared in duplicate. Negative controls were prepared in singlet.
(§4) The reaction was started with the addition of 4 μL of 200 μM exemplary test compounds or control compounds to each master solution to get the final concentration of 2 μM. This study was performed in duplicate.
(§5) Aliquots of 50 μL were taken from the reaction solution at 0, 15, 30, 45 and 60 minutes. The reaction solutions were stopped by the addition of 4 volumes of cold methanol with IS (100 nM alprazolam, 200 nM imipramine, 200 nM labetalol and 2 μM ketoprofen). Samples were centrifuged at 3,220 g for 40 minutes. Aliquot of 90 μL of the supernatant was mixed with 90 μL of ultra-pure H2O and then was used for LC-MS/MS analysis.
(§6) LC/MS analysis was performed for all samples from this study using a Shimadzu liquid chromatograph separation system equipped with degasser DUG-20A5R; solvent delivery unit LC-30AD; system controller SIL-30AC; column oven CTO-30A; CTC Analytics HTC PAL System; Mass spectrometric analysis was performed using an Triple Quad™ 5500 instrument.
(§7) All calculations were carried out using Microsoft Excel. Peak area ratios of test compound to internal standard (listed in the below table) were determined from extracted ion chromatograms.
(§8) All calculations were carried out using Microsoft Excel. Peak areas were determined from extracted ion chromatograms. The slope value, k, was determined by linear regression of the natural logarithm of the remaining percentage of the parent drug vs. incubation time curve.
(§9) The in vitro half-life (in vitro t½) was determined from the slope value:
(§10) Conversion of the in vitro t½ (min) into the in vitro intrinsic clearance (in vitro CLint, in μL/min/mg proteins) was done using the following equation (mean of duplicate determinations): […]

[2] = target: human 5-HT2A (h5-HT2A) receptor (Homo sapiens (Human), UniProt P28223); experiment: FLIPR assay, human 5-HT2A receptor under agonist mode; format: cell-based; conditions: FLIPR calcium
Experimental: I. Assessment of the Activated Effect of Exemplary Compounds of Formula I Targeting on Human 5-HT2A (h5-HT2A) Receptor Under Agonist Mode:
1. the Cells were cultured in cell culture medium (DMEM containing 10% FBS 1×penicillin-streptomycin 300 μg/ml G418 and 100 μg/ml hygromycin B) at 37° C., 5% (v/v) CO2.
2. One day before the assays, the cells were detached using TrypLE™ Express and cells were counted using cell counter.
3. 20000 cells/well were seeded in 30 μl/well culture medium to a 384-well cell plate and the cells were incubated overnight at 37° C., 5% (v/v) CO2.
4. On the assay day, 2× dye solution was prepared following the manual of the FLIPR® Calcium 6 Assay Kit: i. The dye was diluted with assay buffer(20 mM HEPES in 1×HBSS, PH7.4); ii. Probenecid was added to the final concentration of 5 mM; iii. Vortex vigorously for 1-2 minutes.
5. Medium was removed from cell plate by flicking the cell plate on towel papers.
6. 10 μl of assay buffer and 10 μl of 2× dye solution was added to each well of the cell plate.
7. The cell plate was placed on plate shaker, and the plate was agitated at 600 rpm for 2 minutes. The plate was incubated at 37° C. for 2 hours followed by additional 15-minute incubation at 25° C.
8. 3× compound in assay buffer was prepared: a. reference compounds were diluted to required concentration with DMSO. Compounds were added to a 384-well compound plate; b. Serial dilutions were performed; c. 10 mM test compounds were added to the compound plate, 3-fold serial dilutions were performed. d. […] 20 μl/well assay buffer was added to the compound plate; f. The plate was mixed on plate shaker for 2 mins;
i. The normalized fluorescence reading (RFU) was calculated as shown below, wherein Fmax and Fmin stand for maximum and minimum of calcium signal during defined time window: RFU=Fmax−Fmin
ii. The percentage activation was calculated by using following equation: […]
iii. EC50 was calculated by fitting % activation against log of compound concentrations with Hill equation using XLfit.

[3] = Liver microsomes stability, rat; conditions: for Predicted hepatic CL: Rat liver microsomes, with NADPH; for Remaining Percentage (%) 0 min / Remaining Percentage (%) 60 min: Rat; for CLint scaled at 2 μM / half-life at 2 μM / microsomal CLint at 2 μM: rat, microsomes
Experimental: as §1, §2, §3, §4, §5, §6, §7, §8, §9, §10

human 5-HT2A receptor = human 5-HT2A receptor (Homo sapiens (Human), UniProt P28223); experiment: Radioligand binding assay ([3H]-ketanserin) on human 5-HT2A receptor; conditions: [3H]-ketanserin competition; read-out: h5-HT2A IC50
Experimental: • i. The assay buffer was prepared following the table below;
• ii. 8 doses of reference and exemplary test compounds were prepared starting from 10 mM stock solution as requested by 5-fold serial dilutions with 100%; • iii. (v/v) DMSO was prepared: a. 50 μl/well of 0.5% (v/v) PEI was added to UniFilter-96 GF/B plates. The plates were sealed and incubates at 4° C. for 3 hrs; b. After incubation, the plates were washed 3 times with ice-cold wash buffer (50 mM Tris, pH7.4); • iv. Preparation of assay plates: a. Cell membrane was diluted with assay buffer and 330 μl/well was added to 96 round deep well plates to reach a concentration of 20 μg/well; b. 8 concentrations of reference or exemplary test compounds were prepared and added 110 μl/well to 96 round deep well plates; c. [3H]-ketanserin was diluted with assay buffer to 5 nM (5× final concentration) and added 110 μl/well to 96 round deep well plates. • v. The plate were centrifuged at 1000 rpm for 30 secs and then agitated at 600 rpm, R.T. for 5 min. • vi. The plates were sealed and incubated at 27° C. for 90 min. • vii. The incubation was stopped by vacuum filtration onto GF/B filter plates followed by 4 times washing with ice-cold wash buffer (50 mM Tris, pH7.4). • vii. […] The filter plates were sealed and 40 μl/well of scintillation cocktail added. • x. The plate was read by using a Microbeta2 microplate counter.
For reference and exemplary test compounds, the results are expressed as % Inhibition, using the normalization equation: N=100−100×(U−C2)/(C1−C2), where U is the unknown value, C1 is the average of high controls, and C2 is the average of low controls. The IC50 was determined by fitting percentage of inhibition as a function of compound concentrations with Hill equation using XLfit.

[4] = Liver microsomes stability, human; conditions: for Remaining Percentage (%) 0 min / Remaining Percentage (%) 60 min: Human; for CLint scaled at 2 μM / half-life at 2 μM / microsomal CLint at 2 μM: human, microsomes
Experimental: as §1, §2, §3, §4, §5, §6, §7, §8, §9, §10

[5] = Mouse liver microsomes, with NADPH
[6] = Human liver microsomes, with NADPH

| Compound | Predicted hepatic CL [1, 5] [mL/min/kg] | Remaining Percentage (%) 0 min ([1]; With NADPH) [%] | Remaining Percentage (%) 60 min ([1]; With NADPH) [%] | Remaining Percentage (%) 0 min ([1]; Without NADPH) [%] | Remaining Percentage (%) 60 min ([1]; Without NADPH) [%] | EC50 [2] [nM] | Predicted hepatic CL [3] [mL/min/kg] | Remaining Percentage (%) 0 min ([3]; With NADPH) [%] | Remaining Percentage (%) 60 min ([3]; With NADPH) [%] | Remaining Percentage (%) 0 min ([3]; Without NADPH) [%] | Remaining Percentage (%) 60 min ([3]; Without NADPH) [%] | CLint scaled at 2 μM [3] [mL/min/kg] | half-life at 2 μM [3] [h] | microsomal CLint at 2 μM [3] [µL/min/mg] | IC50 (human 5-HT2A receptor) [nM] | Predicted hepatic CL [4, 6] [mL/min/kg] | Remaining Percentage (%) 0 min ([4]; With NADPH) [%] | Remaining Percentage (%) 60 min ([4]; With NADPH) [%] | Remaining Percentage (%) 0 min ([4]; Without NADPH) [%] | Remaining Percentage (%) 60 min ([4]; Without NADPH) [%] | also measured |
| --- | --- | --- | --- | --- | --- | --- | --- | --- | --- | --- | --- | --- | --- | --- | --- | --- | --- | --- | --- | --- | --- |
| [2H]C1([2H])CC(c2c[nH]c3cccc(O)c23)C([2H])([2H])N1 (stereo not shown) [Compound I-33, 3-(pyrrolidin-3-yl-2,2,5,5-d4)-1H-indol-4-ol] | 0.00 | 100.00 | 103.45 | 100.00 | 118.32 | > 10000 | 15.15 | 100.00 | 70.49 | 100.00 | 105.30 | 20.9 | 1.98 | 11.7 | < 1000 | 1.24 | 100.00 | 96.89 | 100.00 | 115.64 | T1/2 (min) ([1]; Mouse liver microsomes, with NADPH, 2 μM): ∞; CLint scaled at 2 μM [4]: 1.32 mL/min/kg; half-life at 2 μM [4]: 22 h; microsomal CLint at 2 μM [4]: 1.05 µL/min/mg |
| [2H]C1([2H])CC(c2c[nH]c3cccc(O)c23)C([2H])([2H])N1C (stereo not shown) [Compound I-34, 3-(1-methylpyrrolidin-3-yl-2,2,5,5-d4)-1H-indol-4-ol] | 38.03 | 100.00 | 63.66 | 100.00 | 96.60 | < 1000 | 23.24 | 100.00 | 51.06 | 100.00 | 85.53 | 40.1 | 1.03 | 22.4 | 1000 to 10000 | 4.02 | 100.00 | 88.74 | 100.00 | 80.14 | CLint scaled at 2 μM [1]: 65.9 mL/min/kg; half-life at 2 μM [1]: 1.53 h; microsomal CLint at 2 μM [1]: 15.1 µL/min/mg; CLint scaled at 2 μM [4]: 4.99 mL/min/kg; half-life at 2 μM [4]: 5.8 h; microsomal CLint at 2 μM [4]: 3.98 µL/min/mg |
| [2H]C1([2H])CC(c2c[nH]c3cccc(OCc4ccccc4)c23)C([2H])([2H])N1 (stereo not shown) [Compound I-35, 4-(benzyloxy)-3-(pyrrolidin-3-yl-2,2,5,5-d4)-1H-indole] | 32.19 | 100.00 | 70.91 | 100.00 | 90.87 | < 1000 | 17.94 | 100.00 | 64.09 | 100.00 | 103.32 | 26.6 | 1.56 | 14.8 | < 1000 | 0.00 | 100.00 | 104.21 | 100.00 | 119.60 | CLint scaled at 2 μM [1]: 50.1 mL/min/kg; half-life at 2 μM [1]: 2.02 h; microsomal CLint at 2 μM [1]: 11.5 µL/min/mg; T1/2 (min) ([4]; Human liver microsomes, with NADPH, 2 μM): ∞ |
| CN(C)CCc1c[nH]c2cccc(O)c12 [Psilocin, 4-hydroxy-N,N-dimethyltryptamine, reference compound] | 29.00 | 100.00 | 74.57 | 100.00 | 91.98 | – | 18.53 | 100.00 | 62.68 | 100.00 | 96.98 | 27.9 | – | – | – | 8.64 | 100.00 | 70.16 | 100.00 | 87.13 | CLint scaled at 2 μM [1]: 42.8 mL/min/kg; CLint scaled at 2 μM [4]: 14.8 mL/min/kg |
| [2H]C([2H])N1C([2H])([2H])CC(c2c[nH]c3cccc(F)c23)C1([2H])[2H] (stereo not shown) [Compound I-41, 4-fluoro-3-(1-(methyl-d2)pyrrolidin-3-yl-2,2,5,5-d4)-1H-indole] | – | – | – | – | – | 1000 to 10000 | – | – | – | – | – | – | – | – | 1000 to 10000 | – | – | – | – | – | – |
